# Assays:
# [1] = system: TH-IR (dopaminergic) neurons in mesencephalic neuron-glia cultures; experiment: TH-IR neuron count and morphology in LPS-treated neuron-glia cultures; format: cell-based, rat; details: for dendrite network (immunocytochemical analysis): LPS; for attenuation of LPS-induced reduction in the number of TH-IR neurons: 30 min pretreatment
# [2] = system: dopaminergic neurons in rat primary mesencephalic neuron-glia cultures; experiment: DA uptake / TH-IR count in neuron-glia cultures without toxin (spontaneous DA neuronal death, neurotrophic effect); format: cell-based
# Description: In Example 23, [^3H]DA uptake assay and immunohistochemical analysis for TH-IR neurons were used to assess the viability of DA neurons in rat primary mesencephalic neuron-glia cultures in which approximately 1% of the neurons are dopaminergic. [^3H]DA uptake assays were performed as described in Example 1.
# Rat primary mesencephalic neuron-glia cultures were prepared from the ventral mesencephalic tissues of embryonic day 13-14 Fisher 344 rats. Dissociated cells were seeded at a density of 5×10^5/well to poly-D-lysine-precoated 24-well plates. Cells were maintained at 37° C. in a humidified atmosphere of 5% CO2 and 95% air, in minimal essential medium containing 10% fetal bovine serum (FBS), 10% horse serum, 1 gm/l glucose, 2 mM L-glutamine, 1 mM sodium pyruvate, 100 μM non-essential amino acids, 50 U/ml penicillin, and 50 μg/ml streptomycin. Unless otherwise indicated, seven-day-old cultures were used for treatment.
# Seven days after seeding, each well was treated with indicated concentration of VPA or its vehicle. Seven days after treatment, the viability of dopaminergic neurons was assessed by [^3H]DA uptake assays. Quantified results are expressed as mean±SEM of percentage of vehicle-treated cultures from three experiments performed in duplicate. *, p<0.05 compared with the corresponding vehicle-treated control cultures.
# Next, the rat primary mesencephalic neuron-glia cultures were treated with 0.6 mM VPA for various times to determine the treatment time-dependency. Rat primary mesencephalic neuron-glia cultures in a 24-well plate were treated with 0.6 mM VPA or its vehicle for indicated time 7 days after seeding. The viability of dopaminergic neurons was assessed by [^3H]DA uptake assays, shown in FIG. 37 or counting of TH-IR neurons, shown in FIG. 38. Quantified results are expressed as mean±SEM of percentage of vehicle-treated control cultures from three experiments performed in duplicate. *, p<0.05 compared with the corresponding vehicle-treated control cultures. […] VPA time-dependently induces survival-promoting effects against spontaneous DA neuronal death in rat primary mesencephalic neuron-glia cultures.
# Rat primary mesencephalic neuron-glia cultures seeded in a 24-well culture plate at density of 5×10^5 per well were treated with indicated concentrations of sodium butyrate or its vehicle 7 days after seeding. The viability of dopaminergic neurons was assessed by DA uptake assays 7 days after sodium butyrate addition.
# Mesencephalic neuron-glia cultures, prepared as described above, were pretreated with vehicle or 3-HM (1-5 μM) before the treatment of LPS (10 ng/ml). Seven days later, the degeneration of dopaminergic neurons was determined by the functional assay of [^3H]DA uptake and by the morphometric measurement of dopaminergic neurons following immunostaining with an anti-TH antibody. [^3H]DA and immunostaining are performed as described above.
# [3] = system: dopaminergic neurons in mesencephalic neuron-enriched cultures; experiment: [3H]DA uptake in neuron-enriched cultures (direct, conditioned media, reconstituted); format: cell-based, rat; details: for DA uptake with 3-HM-treated astroglia conditioned media: 24 h conditioning, % of non-conditioned control, vehicle conditioned 122%
# Description: Mixed-glia cultures were first prepared from brains of 1-day-old Fisher 344 rat pups, as described previously (Liu, et al. 2001). Mechanically dissociated brain cells (5×10^7) were seeded onto 150 cm^2 culture flasks in Dulbecco's modified Eagle's medium containing 10% heat-inactivated FBS, 2 mM L-glutamine, 1 mM sodium pyruvate, 100 μM non-essential amino acids, 50 U/ml penicillin, and 50 μg/ml streptomycin. The cultures were maintained at 37° C. in a humidified atmosphere of 5% CO2 and 95% air, and medium was replenished 4 days after the initial seeding. Upon reaching confluence (usually 12-14 days later), microglia were detached from astroglia by shaking the flasks for 5 hours at 180 rpm. Astroglia were then detached with trypsin-EDTA and seeded in the same culture medium. After five or more consecutive passages, cells were seeded onto 24-well plates (10^5/well) for experiments. Immunocytochemical staining of the astroglia enriched cultures with either anti-GFAP or anti-OX-42 antibody indicated astroglial purity of greater than 98% and less than 2% of microglia contamination.
# Conditioned medium derived from rat primary astroglial cultures treated with vehicle (ACM) or 0.6 mM VPA (ACM-VPA) were harvested after 12, 24 and 48 hours of incubation. Midbrain neuron-enriched cultures seeded in 24-well plates at a density of 5×10^5 cells/well were treated with vehicle, VPA, ACM or ACM-VPA for 7 days. Neurotrophic effect was quantified by [^3H]DA uptake assay.
# Rat mesencephalic neuron-enriched cultures are prepared from dissociated ventral mesencephalic cells from embryonic day 13-14 Fisher 344 rats were seeded first at a density of 5×10^5/well to poly-D-lysine-precoated 24-well culture plates. […] Three days later, the culture medium was replaced with the maintenance medium. Routinely, the seven-day-old neuron-enriched cultures were used for treatment. […] Of the Neu-N immunoractive neurons, 2.7-3.9% was TH-IR neurons.
# To explore whether astroglial cells are also the main target of sodium butyrate-induced neurotrophic effect, we prepared media conditioned by incubation of astroglial cultures in the absence or presence 0.6 mM sodium butyrate. Conditioned medium derived from rat primary astroglial cultures treated with vehicle (ACM) or 0.6 mM sodium butyrate (ACM-Sodium butyrate) were harvested after 48 hours of incubation. Midbrain neuron-enriched cultures seeded in 24-well plates at a density of 5×10^5 cells/well were treated with vehicle, sodium butyrate, ACM or ACM-Sodium butyrate for 7 days. Seven days after treatment, neurotrophic effect for dopaminergic neurons was assessed by [^3H]DA uptake assays.
# Various concentrations of 3-HM (0.1-5 μM) or vehicle were added to the following different cell cultures: neuron-enriched cultures (A); reconstituted cultures by adding 10% and 20% (5×10^4/well and 1×10^5/well) of microglia to the neuron-enriched cultures (B); reconstituted cultures by adding 40% and 50% (2×10^5/well and 2.5×10^5/well) of astroglia to the neuron-enriched cultures (C). Cultures are prepared as described in Example 25. The [^3H]DA uptake measurements were performed […] after treatment. Results were expressed as a percentage of the vehicle-treated control cultures and were the mean±SE from five (A) and four (B,C) independent experiments in triplicate. *P<0.05 and **P, 0.001 compared with the vehicle-treated control cultures. #P<0.05 compared with the augmented cultures with 40% astroglia. N, neuron-enriched cultures; N+10% (20%) MG: 10% (20%) of microglia were added back to the neuron-enriched cultures; N+40% (50%) AS: 40% (50%) of astroglia were added back to the neuron-enriched cultures.
# To confirm the possible role of astroglia in the neurotrophic effect of 3-HM, conditioned media from astroglia-enriched cultures (prepared as described above) treated with either 3-HM (1-5 μM) or vehicle for 24 hours were prepared. […]
# [4] = system: dopaminergic neurons in rat primary mesencephalic neuron-glia cultures; experiment: [3H]DA uptake in LPS-treated mesencephalic neuron-glia cultures; format: cell-based; details: for DA uptake, post-treatment with DM: LPS 20 ng/ml 12 h then removed
smiles,measurement,setting,value
"Oc1ccc2c(c1)[C@@]13CCCC[C@H]1[C@@H](C2)NCC3 [3-HM, 3-hydroxymorphinan]",number of dopaminergic neurons,"[1]; 3-HM 5 μM pretreatment, LPS 10 ng/ml, LPS alone reduced by 51%",97 % of the vehicle-treated control cultures
same,average length of dopaminergic neuronal neurites,"[1]; 3-HM pretreatment, LPS 10 ng/ml, LPS alone 43%",110 % of the vehicle-treated control cultures
same,increase of DA uptake capacity vs vehicle-treated control,"[2]; 3-HM 1-5 μM alone, 7 days",20-60%
same,neurotrophic effect of compound alone in neuron-glia cultures,[2],significant neurotrophic effect
same,DA uptake with 3-HM-treated astroglia conditioned media,"[3]; 3-HM 1 μM, 10 days",151.3%
same,DA uptake with 3-HM-treated astroglia conditioned media,"[3]; 3-HM 2.5 μM, 10 days",160.9%
same,DA uptake with 3-HM-treated astroglia conditioned media,"[3]; 3-HM 5 μM, 10 days",197.8%
same,DA uptake capacity in neuron-enriched cultures,"[3]; 3-HM 0.1-5 μM, 10 days",failed to show a significant increase in the DA uptake capacity
same,"DA uptake, neuron-enriched cultures + microglia","[3]; 10% or 20% of microglia added back, 3-HM-treated, 10 days",failed to increase DA uptake
same,"capacity of DA uptake, neuron-enriched cultures + astroglia","[3]; 40% of astroglia added back, 3-HM-treated, 10 days",135.8%
same,"capacity of DA uptake, neuron-enriched cultures + astroglia","[3]; 50% of astroglia added back, 3-HM-treated, 10 days",158.3%
same,LPS-induced decrease in DA uptake,"[4]; 3-HM 5 μM, LPS 10 ng/ml, 7 days",almost back to the vehicle-treated control values
"COc1ccc2c(c1)[C@@]13CCCC[C@H]1[C@@H](C2)N(C)CC3 [DM, d-3-methoxy-N-methylmorphinan]",dendrite network (immunocytochemical analysis),[1]; DM 10^−5 M and 10^−14 M,more elaborate dendrite network
same,attenuation of LPS-induced reduction in the number of TH-IR neurons,"[1]; DM 10^−5 M, LPS 10 ng/ml",37%
same,dendrite network (immunocytochemical analysis),[1]; DM 10^−10 M,failed to show improvement
same,dopaminergic neuron degeneration (TH-IR neuron number),"[1]; DM 10^−10 M, LPS 10 ng/ml",no protective effects
same,attenuation of LPS-induced reduction in the number of TH-IR neurons,"[1]; DM 10^−14 M, LPS 10 ng/ml",28%
same,neurotrophic effect of compound alone in neuron-glia cultures,[2],not observed
same,neurotrophic effect of DM-treated astroglia conditioned media,"[3]; DM 5 μM, vs vehicle-treated conditioned cultures",failed to exhibit any neurotrophic effect
same,LPS-induced decrease in [3H]-dopamine uptake,"[4]; DM 10^−13 and 10^−14 M, 30 min pretreatment, LPS 10 ng/ml, 7 days",equipotent neuroprotective effect
same,"DA uptake, post-treatment with DM",[4]; DM 10^−5 and 10^−14 M post-treatment,showed a protective effect
same,"DA uptake, post-treatment with DM",[4]; DM 10^−10 M post-treatment,but not at 10^−10 M
"CCCC(CCC)C(=O)O [VPA, Valproic acid]","DA neuron morphology (anti-TH), VPA alone",[1]; VPA 0.6 mM alone,promoted neurite formation and inter-neuronal networks
same,TH immunostaining in cell bodies and neuronal processes,"[1]; VPA 0.6 mM, alone or with LPS, vs vehicle control",enhanced the TH immunostaining
same,LPS-induced decrease of TH-ir neurons and loss of neuronal process (morphology),"[1]; VPA 0.2-0.6 mM pretreatment, LPS 20 ng/ml",reversed by VPA pretreatment in a dose-dependent manner
same,LPS-induced morphological changes of DA neurons,"[1]; VPA 0.2 to 0.6 mM, 48 hours pretreatment, LPS 10 ng/ml, 7 days",prevented by VPA pretreatment
same,LPS-induced loss of TH-ir neurons,"[1]; VPA pretreatment 48 h, significant effect at 0.2, 0.4 and 0.6 mM, LPS 20 ng/ml 72 h",prevented by VPA pretreatment in a concentration-dependent manner
same,capacity of [3H]DA uptake vs vehicle-treated control,[2]; VPA 0.6 mM for 7 days,marked increase
same,number of TH-IR neurons vs vehicle-treated control,[2]; VPA 0.6 mM for 7 days,marked increase
same,spontaneous DA neuronal death (DA uptake),"[2]; VPA 0.6 mM, 7 days",significantly protected DA neurons from spontaneous neuronal death
same,increase in DA uptake,"[3]; neuron-enriched cultures, 7 days, drug 0.6 mM or conditioned medium",less than 2 fold
same,"DA uptake levels, VPA alone","[4]; VPA 0.6 mM alone, no LPS",did not affect DA uptake levels
same,neuroprotection against LPS neurotoxicity (DA uptake),"[4]; VPA 0.6 mM, 6 hours pretreatment, LPS 10 ng/ml",failed to induce a significant effect
same,neuroprotection against LPS neurotoxicity (DA uptake),"[4]; VPA 0.6 mM, 12 hours pretreatment, LPS 10 ng/ml",complete neuroprotection
same,neuroprotection against LPS neurotoxicity (DA uptake),"[4]; VPA 0.6 mM, 48 hours pretreatment, LPS 10 ng/ml",further increase in DA uptake levels
same,LPS-induced decrease in DA uptake,"[4]; VPA 0.6 mM, 48 h pretreatment, LPS 20 ng/ml",completely restored
same,DA uptake levels vs untreated control,"[4]; VPA 0.6 mM, alone or with LPS 10 ng/ml",significantly higher than those in the untreated control
same,LPS-induced reduction of DA uptake,"[4]; VPA 0.05-0.6 mM, 48 h pretreatment, LPS 20 ng/ml 3 days",concentration-dependently prevented
same,LPS-induced loss of DA uptake capacity,"[4]; VPA various doses, 48 hours pretreatment, LPS 10 ng/ml 5 days",robustly blocked

# Source: patent publication US8796302B2 (priority 2004, dated 2014)
